Patent publication US20250092360A1, “METHODS AND COMPOSITIONS FOR GENERATING SOMATOSTATIN+ INTERNEURONS FROM HUMAN FOREBRAIN NEURAL PROGENITOR CELLS” (Trailhead Biosystems Inc., priority 2023, published 2025)
Several values for one entry are separate records, joined by “and”; a condition that tells them apart may be missing. Equal entries are not always repeated. Entries after “also recorded” stand apart in the source; their conditions may differ.

Legend:
[1] = test system: forebrain-committed neural progenitor cells; assay: HD-DoE stage 5, 8-factor experiment (GDNF, BDNF, NT-3 ...): Somatostatin expression; format: cell-based, human; settings: for impact on expression of Somatostatin: FIG. 24 dynamic profile, in words; for factor contribution, expression of Somatostatin: positive, 8-factor experiment of FIG. 23
Procedure: To investigate the effects of other factors on differentiation of forebrain-committed neural progenitor cells to Somatostatin interneuron cells, an additional HD-DoE experiment was performed for 3 days on cells that were treated with stage 1 to stage 4 medium for a total of 12 days prior to the new experiment. This experiment, the results of which are shown in FIG. 23, included eight effectors, GDNF, BDNF, NT-3, ß-NGF, Linoleic acid, 5-Cholesten-3β, LIF and TGF-β3. In this model, we focused on maximum expression of Somatostatin gene expressed in Somatostatin (+) interneurons (Urban-Ciecko and Barth (2016) Nature Reviews Neurosci. 17:401-409). When the model was optimized for maximum expression of Somatostatin, BDNF, NT-3, beta-NGF and Linoleic acid had the highest factor contributions, 25.7, 2, 19.9, 23.5, respectively.
Therefore, the latter were excluded in the recipe.

[2] = test system: stage 2 neural stem cells; assay: HD-DoE stage 3 experiment: ASCL1, LHX6, DLX1 expression; format: cell-based, human; settings: for factor contribution, expression of ASCL1: positive, model optimized for maximum ASCL1 at 1700
Procedure: To further guide the cells to medial ganglionic eminence progenitor fate, an additional HD-DoE experiment was performed for 3 days on cells that were treated with stage 1 and stage 2 media for total of 6 days prior to start of the experiment. This experiment included 13 effectors, LDN193189, A8301, GNF5837, AZD3147, GSI-XX, Takinib, PD0325901, PD173074, BLU9931, IGF-1, MHY1485, Purmorphamine and Prostratin. In this model, we focused on maximum expression of genes expressed in neuronal progenitor cells in medial ganglionic eminence (MGE) region including ASCL1, LHX6 and DLX1 (Silberberg et al. (2016) Neuron 92:59-74). When the model was optimized for maximum expression of ASCL1 at 1700, A8301, GSI-XX, Purmorphamine and Takinib, which is an inhibitor of TAK1 pathway, had the highest factor contributions, 18.1, 14.1, 12.7 and 10.1 respectively. […] MHY 1485 also had positive contribution however the factor was below 2 (FIG. 9).
Therefore, six effectors including A8301, GSI-XX, Takinib, GNF5837, IGF-1 and Purmorphamine were finalized as ingredients of stage 3 differentiation media. A representative recipe for Stage 3 differentiation is summarized below in Table 3.

[3] = test system: stage 2 neural stem cells; assay: Factor criticality analysis, stage 3 recipe; format: cell-based, human; settings: other five stage 3 factors present; for expression level of DLX1 when the factor is removed: 220 with all six factors; for expression level of LHX6 when the factor is removed: 240 with all six factors; for expression level of ASCL1 when the factor is removed: 1650 with all six factors
Procedure: (§1) To assess the impact of the elimination of each validated factor, dynamic profile analysis was used and compared the expression level of genes of interest in absence of each finalized factor while others are present.
In the stage 3 recipe, each of the six finalized factors were removed while the other five factors remained present and the expression levels of ASCL1, DLX1 and LHX6 were assessed compared to the presence of all six factors. […] As expected, in the absence of IGF-1, the value of DLX1 increases to 410, however, ASCL1 and LHX6 decreased to 1390 and 220, respectively.

[4] = test system: human pluripotent stem cells; assay: HD-DoE stage 1, additional experiment: FEZF2 expression; format: cell-based; settings: dynamic profile, in words
Procedure: To identify the recipe for stage 1 of differentiation, 96 different combinations of effectors generated using Design-of-Experiments compression through D-optimality were robotically prepared. The effector combinations were prepared in a basal media and were subsequently added to the cells, which were then allowed to differentiate. Three days later RNA extraction was performed, and gene expression was obtained using quantitative PCR analysis. The data were normalized and modeled using partial least squares regression analysis to the effector design, resulting in the generation of gene-specific models, which after model tuning for maximal Q2 predictive power, provided explanation of the effectors ability to control the expression of individual genes, combinatorically, and individually. Solutions within the tested space could then be explored to address desirability. To further enhance the conditions for forebrain differentiation from pluripotency, an additional HD-DoE experiment was performed. Additional gene regulatory models were obtained that were used for preparation of the differentiation protocol. The factors in this experiment included LDN193189, PD173074, BLU9931, Purmorphamine, SC79, MK2206, ZM336372, PD0325901, CHIR99021, XAV939, UCLA-GP130, Tofacitinib and GO6983. […] Dynamic profile analysis was also used to assess the interaction between the effectors.

[5] = test system: human pluripotent stem cells; assay: Factor criticality analysis, stage 1 recipe (dynamic profile analysis); format: cell-based; settings: 3500 with all factors; FIG. 12
From the text: as §1, with “present. […] When Purmorphamine was removed, levels of FEZF2 and SIX3 were decreased to 1000 and below 3000, while levels of OTX2 increased to 6500.” for “present.”

[6] = test system: medial ganglionic eminence (MGE)-derived neural progenitors; assay: HD-DoE stage 4, 12-factor experiment: SOX6 expression; format: cell-based, human; settings: for impact on expression of SOX6: dynamic profile, in words; for factor contribution, expression of SOX6: significant negative effect, model optimized for maximal SOX6
From the text: These effectors are small chemical compounds or proteins. They are commonly used during the differentiation of stem cells to specific cell linage. The choice of the effectors was based on the current literature on forebrain neural induction and differentiation of neural progenitor cells to mature neurons.
To evaluate the effectors on SST differentiation, experiments with 8 or 12 factors were designed to assess the responses of cells to 48 or more combinations of effectors in a range of concentrations. To analyze the models, we focused on expression of genes involved in development and patterning of the forebrain interneurons maturation including LHX6 (Liodis et al. (2007) J. Neurosci. 27:3078-3089; Yuan et al. (2018) Elife 7: e37382), SOX6 (Azim et al. (2009) Nature Neurosci. 12:1238-1247; Batista-Brito et al. (2009) Neuron 63:466-481), DLX5 (de Lombares et al. (2019) Aging (Albany NY) 11:6638; Wang et al. (2010) J. Neurosci. 30:5334-5345) and ASCL1 (Barretto et al. (2020) J. Neurosci. Meth. 334:108548; Shi et al. (2016) J. Biol. Chem. 291:13560-13570). At later stages we focused on interneuron maturation genes including somatostatin and absence of Parvalbumin (Horn and Nicoll (2018) Proc. Natl. Acad. Sci. 115:589-594). The impacts of each effector on gene expression level are defined by a parameter called factor contribution that is calculated for each effector during the modeling.
To identify the recipe for differentiation at stage 4, at least 48 different combinations of effectors were robotically prepared by the Design-of-Experiments compression through D-optimality. The effector combinations were prepared in a basal media and were subsequently added to the cells, which were then allowed to differentiate. Three days later, RNA extraction was performed, and gene expression levels were examined using quantitative PCR analysis. The data was normalized and modeled using partial least squares regression analysis to the effector design, resulting in the generation of gene-specific models, which after model tuning for maximal predictive power, provided explanation of the effectors ability to control the expression of individual genes, combinatorically, and individually. Solutions within the tested space could then be explored to address desirability.
IGF-1 activates the IGF-1 pathway, promotes neuron axonal growth, and establishes the synapse of interneurons. GDNF is the […] and can activate the GDNF pathway. MK2206 is an AKT inhibitor and can inhibit cell proliferation and promote neuronal maturation. PD173074 and BLU-554 are FGFR inhibitors. The FGF pathway is required for the maintenance of neural progenitor cells. Inhibition of the FGFR pathway promotes neural maturation. GSI-XX is a notch pathway inhibitor. Notch pathway inhibits neural progenitor cell differentiation. Inhibition of the Notch pathway promotes neural differentiation.
To find the set of factors that have the potential to optimize SOX6 in this experiment, a new assessment was done through dynamic profile analysis with focus on maximal expression of SOX6.

[7] = test system: forebrain-committed neural progenitor cells; assay: HD-DoE stage 5, 8-factor experiment (JQ1, Indolactam-V ...): Somatostatin expression; format: cell-based, human
Procedure: To further guide the differentiation of forebrain-committed neural progenitor cells to somatostatin interneuron cells at stage 5, HD-DoE experiments were performed for 3 days after termination of stage 4 treatment. At this time, we focused on maximum expression of SST that was expressed in Somatostatin (+) interneurons and minimum expression of Parvalbumin that is another type of interneurons. This 8-factor experiment included JQ1, (−)-Indolactam-V, Oleic acid, BDNF, IGF-1, 2-phospho-L-Ascorbic acid, Albumax, MK2206. When the model was maximized for expression of Somatostatin, six effectors were identified that could increase its expression levels, including (−)-Indolactam-V, Oleic acid, BDNF, 2-phospho-L-ascorbic acid, Albumax, and MK2206, as shown in FIG. 21. Using dynamic profile analysis, the results of which are shown in FIG. 22, the model was modified to achieve the maximum expression level of Somatostatin and therefore (−)-Indolactam-V, BDNF, and 2-phospho-L-ascorbic acid were included while JQ-1, Oleic acid, Albumax and MK2206 were excluded. Considering the model at different optimization settings for maximum differentiation of cells toward ventral forebrain, the recipe for stage 5 of differentiation included (−)-Indolactam-V, BDNF, IGF-1, and 2-phospho-L-ascorbic acid from this HD-Doe experiment.

## 5-Cholesten-3β
[1]
  impact on expression of Somatostatin: negative impact

## Cc1cccc(-c2nn(C(=S)Nc3ccccc3)cc2-c2ccnc3ccccc23)n1 [A8301]
[2]; dynamic profile, in words
  impact on expression of ASCL1: positive trends; also recorded: Positive impact
  impact on expression of DLX1: did not have a significant negative impact
  impact on expression of LHX6: positive trends; also recorded: Positive impact
[2]
  factor contribution, expression of ASCL1: 18.1 and 18
[3]
  expression level of DLX1 when the factor is removed: did not change significantly
  expression level of LHX6 when the factor is removed: did not change significantly
  expression level of ASCL1 when the factor is removed: 1000

## Cc1ccc(NC(=O)Nc2cc(C(F)(F)F)ccc2F)cc1Nc1ccc2c(c1)NC(=O)/C2=C\c1ccc[nH]1 [GNF5837]
[2]
  factor contribution, expression of ASCL1: 9.4
[3]
  expression level of DLX1 when the factor is removed: did not have a significant impact
  expression level of LHX6 when the factor is removed: 160
  expression level of ASCL1 when the factor is removed: 1300

## COc1ccc2c(c1)c(C1=C(c3c[nH]c4ccccc34)C(=O)NC1=O)cn2CCCN(C)C [GO6983]
[4]
  impact on expression of FEZF2: positive impact
[5]
  expression level of FEZF2 when the factor is removed: 3200

## CCCCC/C=C\C/C=C\CCCCCCCC(=O)O [Linoleic acid]
[1]
  impact on expression of Somatostatin: positive effect; also recorded: positive impact
  factor contribution, expression of Somatostatin: 23.5

## O=[N+]([O-])c1ccc(Nc2nc(N3CCOCC3)nc(N3CCOCC3)n2)cc1 [MHY 1485]
[2]
  factor contribution, expression of ASCL1: below 2
[6]
  impact on expression of SOX6: negative effect
  factor contribution, expression of SOX6: 9.5

## CCCCCCCC/C=C\CCCCCCCC(=O)O [Oleic acid]
[7]; FIG. 21/22, in words
  impact on expression of Somatostatin: increase; also recorded: positive impact
[7]; positive, 8-factor experiment of FIG. 21
  factor contribution, expression of Somatostatin: 7.4

## NC(=O)c1ccc(-c2nc(-c3ccc4c(c3)OCO4)c(-c3ccccn3)[nH]2)cc1 [SB431542]
[6]
  impact on expression of SOX6: negative effect
  factor contribution, expression of SOX6: 6.2

## CCCn1/c(=N/C(=O)c2cccc(C(N)=O)c2)[nH]c2ccccc21 [Takinib]
[2]
  factor contribution, expression of ASCL1: 10.1
[3]
  expression level of DLX1 when the factor is removed: 180
  expression level of LHX6 when the factor is removed: 170

## CCCC(CCC)C(=O)O [Valproic acid]
[6]
  impact on expression of SOX6: negative effect
  factor contribution, expression of SOX6: 4.7

## LIF: effector tested in the stage 5 HD-DoE experiment
[1]
  impact on expression of Somatostatin: negative impact

## Substance P: member of the tachykinin neuropeptide family
[6]
  impact on expression of SOX6: negative effect
  factor contribution, expression of SOX6: 5.1

## beta-NGF: effector tested in the stage 5 HD-DoE experiment
[1]
  impact on expression of Somatostatin: positive impact
  factor contribution, expression of Somatostatin: 19.9
[1]; listed as β-NGF
  impact on expression of Somatostatin: positive effect

B1: NT-3: effector tested in the stage 5 HD-DoE experiment (protein, UniProt P20783 139-257, looked up)
Neurotrophin-3: YAEHKSHRGEYSVCDSESLWVTDKSSAIDIRGHQVTVLGEIKTGNSPVKQYFYETRCKEARPVKNGCRGIDDKHWNSQCKTSQTYVRALTSENNKLVGWRWIRIDTSCVCALSRKIGRT
[1]
  impact on expression of Somatostatin: positive effect; also recorded: positive impact
  factor contribution, expression of Somatostatin: 2

B2: TGF-β3: effector tested in the stage 5 HD-DoE experiment (protein, UniProt P10600 301-412, looked up)
Transforming growth factor …: ALDTNYCFRNLEENCCVRPLYIDFRQDLGWKWVHEPKGYYANFCSGPCPYLRSADTTHSTVLGLYNTLNPEASASPCCVPQDLEPLTILYYVGRTPKVEQLSNMVVKSCKCS
modifications: Transforming growth factor beta-3
[1]
  impact on expression of Somatostatin: negative impact
